The NIST ThermoML archive (doi:10.1021/je900596d)
± gives the expanded uncertainty stated by the source.

Conditions: Vibrating tube method

FC(F)=C(F)C(F)(F)F [hexafluoropropene]
mass density (263.41 K, 236 kPa, Fluid (supercritical or subcritical phases)): 19 ± 0.05 kg/m3
mass density (263.49 K, 230.2 kPa, Liquid): 1462.58 ± 1.5 kg/m3
mass density (263.49 K, 230.4 kPa, Liquid): 1462.56 ± 1.5 kg/m3
mass density (263.49 K, 231 kPa, Liquid): 1462.62 ± 1.5 kg/m3
mass density (263.49 K, 231.9 kPa, Liquid): 1462.66 ± 1.5 kg/m3
mass density (263.49 K, 232.1 kPa, Liquid): 1462.66 ± 1.5 kg/m3
mass density (263.49 K, 235.3 kPa, Liquid): 1462.67 ± 1.5 kg/m3
mass density (263.49 K, 242.7 kPa, Liquid): 1462.66 ± 1.5 kg/m3
mass density (263.49 K, 244.5 kPa, Liquid): 1462.72 ± 1.5 kg/m3
mass density (263.49 K, 250.6 kPa, Liquid): 1462.76 ± 1.5 kg/m3
mass density (263.49 K, 257.4 kPa, Liquid): 1462.73 ± 1.5 kg/m3
mass density (263.49 K, 258.3 kPa, Liquid): 1462.79 ± 1.5 kg/m3
mass density (263.49 K, 263.2 kPa, Liquid): 1462.89 ± 1.5 kg/m3
mass density (263.49 K, 273.9 kPa, Liquid): 1462.91 ± 1.5 kg/m3
mass density (263.49 K, 279.5 kPa, Liquid): 1462.96 ± 1.5 kg/m3
mass density (263.49 K, 288.7 kPa, Liquid): 1462.98 ± 1.5 kg/m3
mass density (263.49 K, 322.8 kPa, Liquid): 1463.12 ± 1.5 kg/m3
mass density (263.49 K, 327.2 kPa, Liquid): 1463.13 ± 1.5 kg/m3
mass density (263.49 K, 333.9 kPa, Liquid): 1463.18 ± 1.5 kg/m3
mass density (263.49 K, 337.8 kPa, Liquid): 1463.15 ± 1.5 kg/m3
mass density (263.49 K, 341.2 kPa, Liquid): 1463.16 ± 1.5 kg/m3
mass density (263.49 K, 345.9 kPa, Liquid): 1463.25 ± 1.5 kg/m3
mass density (263.49 K, 354.4 kPa, Liquid): 1463.25 ± 1.5 kg/m3
mass density (263.49 K, 361.4 kPa, Liquid): 1463.34 ± 1.5 kg/m3
mass density (263.49 K, 370.3 kPa, Liquid): 1463.38 ± 1.5 kg/m3
mass density (263.49 K, 388 kPa, Liquid): 1463.45 ± 1.5 kg/m3
mass density (263.49 K, 390.4 kPa, Liquid): 1463.48 ± 1.5 kg/m3
mass density (263.49 K, 401.9 kPa, Liquid): 1463.54 ± 1.5 kg/m3
mass density (263.49 K, 413.3 kPa, Liquid): 1463.57 ± 1.5 kg/m3
mass density (263.49 K, 431.1 kPa, Liquid): 1463.65 ± 1.5 kg/m3
mass density (263.49 K, 433.8 kPa, Liquid): 1463.67 ± 1.5 kg/m3
mass density (263.49 K, 447.7 kPa, Liquid): 1463.79 ± 1.5 kg/m3
mass density (263.49 K, 467.1 kPa, Liquid): 1463.9 ± 1.5 kg/m3
mass density (263.49 K, 484.1 kPa, Liquid): 1463.94 ± 1.5 kg/m3
mass density (263.49 K, 491.3 kPa, Liquid): 1463.96 ± 1.5 kg/m3
mass density (263.49 K, 502.2 kPa, Liquid): 1464.1 ± 1.5 kg/m3
mass density (263.49 K, 506.6 kPa, Liquid): 1464.15 ± 1.5 kg/m3
mass density (263.49 K, 518.2 kPa, Liquid): 1464.18 ± 1.5 kg/m3
mass density (263.49 K, 527.6 kPa, Liquid): 1464.19 ± 1.5 kg/m3
mass density (263.49 K, 529.9 kPa, Liquid): 1464.3 ± 1.5 kg/m3
mass density (263.49 K, 550.9 kPa, Liquid): 1464.3 ± 1.5 kg/m3
mass density (263.49 K, 554.1 kPa, Liquid): 1464.39 ± 1.5 kg/m3
mass density (263.49 K, 574.4 kPa, Liquid): 1464.38 ± 1.5 kg/m3
mass density (263.49 K, 584.9 kPa, Liquid): 1464.43 ± 1.5 kg/m3
mass density (263.49 K, 596.2 kPa, Liquid): 1464.57 ± 1.5 kg/m3
mass density (263.49 K, 625.2 kPa, Liquid): 1464.59 ± 1.5 kg/m3
mass density (263.49 K, 652.6 kPa, Liquid): 1464.81 ± 1.5 kg/m3
mass density (263.49 K, 673 kPa, Liquid): 1464.96 ± 1.5 kg/m3
mass density (263.49 K, 705.5 kPa, Liquid): 1465.02 ± 1.5 kg/m3
mass density (263.49 K, 728.3 kPa, Liquid): 1465.2 ± 1.5 kg/m3
mass density (263.49 K, 751.2 kPa, Liquid): 1465.25 ± 1.5 kg/m3
mass density (263.49 K, 772.1 kPa, Liquid): 1465.47 ± 1.5 kg/m3
mass density (263.49 K, 792.6 kPa, Liquid): 1465.54 ± 1.5 kg/m3
mass density (263.49 K, 813.9 kPa, Liquid): 1465.54 ± 1.5 kg/m3
mass density (263.49 K, 853.1 kPa, Liquid): 1465.89 ± 1.5 kg/m3
mass density (263.49 K, 888.3 kPa, Liquid): 1465.94 ± 1.5 kg/m3
mass density (263.49 K, 912.8 kPa, Liquid): 1466.07 ± 1.5 kg/m3
mass density (263.49 K, 939.3 kPa, Liquid): 1466.24 ± 1.5 kg/m3
mass density (263.49 K, 962.1 kPa, Liquid): 1466.39 ± 1.5 kg/m3
mass density (263.49 K, 982.9 kPa, Liquid): 1466.54 ± 1.5 kg/m3
mass density (263.49 K, 1031 kPa, Liquid): 1466.76 ± 1.5 kg/m3
mass density (263.49 K, 1064.1 kPa, Liquid): 1466.9 ± 1.5 kg/m3
mass density (263.49 K, 1098.2 kPa, Liquid): 1467.05 ± 1.5 kg/m3
mass density (263.49 K, 1132.8 kPa, Liquid): 1467.28 ± 1.5 kg/m3
mass density (263.49 K, 1165.8 kPa, Liquid): 1467.41 ± 1.5 kg/m3
mass density (263.49 K, 1201.1 kPa, Liquid): 1467.57 ± 1.5 kg/m3
mass density (263.49 K, 1250.1 kPa, Liquid): 1467.92 ± 1.5 kg/m3
